Activity calls are given as the source filed them. No cut-off for these calls is given here.
What was measured:
Histone deacetylase 2 = Histone deacetylase 2 (Homo sapiens, UniProt Q92769); assay: Inhibition of recombinant human C-terminal GST-tagged HDAC2 (1 to 488 residues) expressed in baculovirus infected sf21 cells using RHK-K(Ac)-AMC as substrate after 60 mins by fluorimetry assay; conditions: read-out: IC50
[1] = biological target: Histone deacetylase 3/Nuclear receptor corepressor 2 (HDAC3/NCoR2) (Homo sapiens, UniProt O15379); assay: biochemical; format: cell-based
[2] = Clearance in Sprague-Dawley rat at 2 mg/kg, iv measured up to 24 hrs; format: ADME, organism-based; conditions: in vivo
Histone deacetylase 8 = biological target: T1, Histone deacetylase 8 (Homo sapiens, UniProt Q9BY41); assay: Inhibition of recombinant C-terminal His-tagged and N-terminal Streptavidin2-tagged human HDAC8 (1 to 377 residues) expressed in baculovirus infected insect cells using RHK-K(Ac)-AMC as substrate after 60 mins by fluorescence assay
T1 sequence (Q9BY41 whole entry): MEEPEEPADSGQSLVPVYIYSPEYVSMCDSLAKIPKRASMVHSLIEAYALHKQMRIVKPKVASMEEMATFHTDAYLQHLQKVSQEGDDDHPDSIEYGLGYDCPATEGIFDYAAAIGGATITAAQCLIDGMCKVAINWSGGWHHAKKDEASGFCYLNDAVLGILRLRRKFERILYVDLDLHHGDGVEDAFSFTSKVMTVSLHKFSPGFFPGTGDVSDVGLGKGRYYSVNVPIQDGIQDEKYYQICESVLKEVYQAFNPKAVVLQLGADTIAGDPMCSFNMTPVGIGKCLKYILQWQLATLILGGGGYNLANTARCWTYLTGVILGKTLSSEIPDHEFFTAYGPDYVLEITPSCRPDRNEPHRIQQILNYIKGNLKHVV

Histone deacetylase 7 = biological target: T2, Histone deacetylase 7 (Homo sapiens, UniProt Q8WUI4); assay: Inhibition of recombinant human N-terminal GST-tagged HDAC7 (518 to 991 residues) expressed in baculovirus infected insect cells using Boc-K(Ac)-AMC as substrate after 90 mins by fluorimetry analysis
T2 sequence (Q8WUI4 whole entry): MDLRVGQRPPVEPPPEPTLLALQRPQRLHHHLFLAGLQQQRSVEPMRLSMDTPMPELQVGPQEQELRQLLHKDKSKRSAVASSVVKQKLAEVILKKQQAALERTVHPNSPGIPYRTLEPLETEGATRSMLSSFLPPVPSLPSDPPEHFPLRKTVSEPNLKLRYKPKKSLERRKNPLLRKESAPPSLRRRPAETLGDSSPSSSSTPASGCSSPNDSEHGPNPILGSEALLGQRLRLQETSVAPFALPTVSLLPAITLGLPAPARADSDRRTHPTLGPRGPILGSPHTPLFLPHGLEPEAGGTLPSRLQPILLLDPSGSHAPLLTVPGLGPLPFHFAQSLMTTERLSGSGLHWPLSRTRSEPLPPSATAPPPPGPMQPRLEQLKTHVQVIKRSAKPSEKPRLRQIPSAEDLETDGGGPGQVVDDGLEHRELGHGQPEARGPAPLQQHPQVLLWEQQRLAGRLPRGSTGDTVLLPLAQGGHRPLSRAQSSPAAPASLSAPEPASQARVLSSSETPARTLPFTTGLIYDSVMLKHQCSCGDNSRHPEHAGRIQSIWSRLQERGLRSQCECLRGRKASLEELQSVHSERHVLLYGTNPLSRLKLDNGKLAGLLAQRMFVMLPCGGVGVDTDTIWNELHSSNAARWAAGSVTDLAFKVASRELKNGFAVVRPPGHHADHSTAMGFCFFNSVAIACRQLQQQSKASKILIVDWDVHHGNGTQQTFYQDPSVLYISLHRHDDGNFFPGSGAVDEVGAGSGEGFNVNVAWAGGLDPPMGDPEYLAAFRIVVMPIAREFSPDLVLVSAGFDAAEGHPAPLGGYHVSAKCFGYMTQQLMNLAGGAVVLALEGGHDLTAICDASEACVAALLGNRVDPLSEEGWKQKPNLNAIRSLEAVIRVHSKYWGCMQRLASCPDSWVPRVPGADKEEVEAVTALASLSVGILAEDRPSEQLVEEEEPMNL

[3] = AUC (0 to infinity) in Sprague-Dawley rat at 10 mg/kg, po measured up to 24 hrs; format: ADME, organism-based; design: dose 10 mg/kg, time infinity, route oral; conditions: in vivo
[4] = Half life in Sprague-Dawley rat at 10 mg/kg, po measured up to 24 hrs; format: ADME, organism-based; conditions: in vivo
[5] = Cmax in Sprague-Dawley rat at 10 mg/kg, po measured up to 24 hrs; format: ADME, organism-based; design: dose 10 mg/kg, route oral; conditions: in vivo
[6] = Tmax in Sprague-Dawley rat at 10 mg/kg, po measured up to 24 hrs; format: ADME, organism-based; conditions: in vivo
[7] = Microsomal stability in rat liver microsomes assessed as parent compound remaining measured after 30 mins; format: ADME, Microsome; conditions: read-out: Stability
Mus musculus [8] = assay: Upregulation of acetylated H3K14 protein expression in left side cortex of bilateral common carotid artery occlusion-induced vascular dementia C57BL/6J mouse model at 25 mg/kg, ip measured after 3 months by Western blot analysis; format: functional, organism-based
Mus musculus [9] = assay: Upregulation of acetylated H4K5 protein expression in hippocampus of bilateral common carotid artery occlusion-induced vascular dementia C57BL/6J mouse model at 25 mg/kg, ip measured after 3 months by Western blot analysis; format: functional, organism-based
Mus musculus [10] = assay: Anti-vascular cognitive impairment activity against bilateral common carotid artery occlusion-induced vascular dementia C57BL/6J mouse model assessed as reversal of hippocampal atrophy by measuring increase in hippocampal volume at 25 mg/kg, ip administered post surgery measured after 3 months by 7T-MRI analysis; format: functional, organism-based

Chain of Histone deacetylase 3/Nuclear receptor corepressor 2 (HDAC3/NCoR2) (O15379 whole entry): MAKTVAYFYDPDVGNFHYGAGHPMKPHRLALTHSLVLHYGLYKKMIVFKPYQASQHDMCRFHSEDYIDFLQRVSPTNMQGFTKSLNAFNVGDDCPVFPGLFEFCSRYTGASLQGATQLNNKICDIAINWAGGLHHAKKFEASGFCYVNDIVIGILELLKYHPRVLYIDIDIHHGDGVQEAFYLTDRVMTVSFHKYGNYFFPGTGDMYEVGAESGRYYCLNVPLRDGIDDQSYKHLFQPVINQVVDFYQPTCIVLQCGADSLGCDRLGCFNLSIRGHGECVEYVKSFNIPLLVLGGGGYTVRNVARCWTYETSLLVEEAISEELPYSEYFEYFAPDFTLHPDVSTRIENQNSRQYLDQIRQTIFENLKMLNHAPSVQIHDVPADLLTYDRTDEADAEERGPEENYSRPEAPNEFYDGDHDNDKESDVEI
Chain of Histone deacetylase 3/Nuclear receptor corepressor 2 (HDAC3/NCoR2) (Q9Y618 whole entry, further chain): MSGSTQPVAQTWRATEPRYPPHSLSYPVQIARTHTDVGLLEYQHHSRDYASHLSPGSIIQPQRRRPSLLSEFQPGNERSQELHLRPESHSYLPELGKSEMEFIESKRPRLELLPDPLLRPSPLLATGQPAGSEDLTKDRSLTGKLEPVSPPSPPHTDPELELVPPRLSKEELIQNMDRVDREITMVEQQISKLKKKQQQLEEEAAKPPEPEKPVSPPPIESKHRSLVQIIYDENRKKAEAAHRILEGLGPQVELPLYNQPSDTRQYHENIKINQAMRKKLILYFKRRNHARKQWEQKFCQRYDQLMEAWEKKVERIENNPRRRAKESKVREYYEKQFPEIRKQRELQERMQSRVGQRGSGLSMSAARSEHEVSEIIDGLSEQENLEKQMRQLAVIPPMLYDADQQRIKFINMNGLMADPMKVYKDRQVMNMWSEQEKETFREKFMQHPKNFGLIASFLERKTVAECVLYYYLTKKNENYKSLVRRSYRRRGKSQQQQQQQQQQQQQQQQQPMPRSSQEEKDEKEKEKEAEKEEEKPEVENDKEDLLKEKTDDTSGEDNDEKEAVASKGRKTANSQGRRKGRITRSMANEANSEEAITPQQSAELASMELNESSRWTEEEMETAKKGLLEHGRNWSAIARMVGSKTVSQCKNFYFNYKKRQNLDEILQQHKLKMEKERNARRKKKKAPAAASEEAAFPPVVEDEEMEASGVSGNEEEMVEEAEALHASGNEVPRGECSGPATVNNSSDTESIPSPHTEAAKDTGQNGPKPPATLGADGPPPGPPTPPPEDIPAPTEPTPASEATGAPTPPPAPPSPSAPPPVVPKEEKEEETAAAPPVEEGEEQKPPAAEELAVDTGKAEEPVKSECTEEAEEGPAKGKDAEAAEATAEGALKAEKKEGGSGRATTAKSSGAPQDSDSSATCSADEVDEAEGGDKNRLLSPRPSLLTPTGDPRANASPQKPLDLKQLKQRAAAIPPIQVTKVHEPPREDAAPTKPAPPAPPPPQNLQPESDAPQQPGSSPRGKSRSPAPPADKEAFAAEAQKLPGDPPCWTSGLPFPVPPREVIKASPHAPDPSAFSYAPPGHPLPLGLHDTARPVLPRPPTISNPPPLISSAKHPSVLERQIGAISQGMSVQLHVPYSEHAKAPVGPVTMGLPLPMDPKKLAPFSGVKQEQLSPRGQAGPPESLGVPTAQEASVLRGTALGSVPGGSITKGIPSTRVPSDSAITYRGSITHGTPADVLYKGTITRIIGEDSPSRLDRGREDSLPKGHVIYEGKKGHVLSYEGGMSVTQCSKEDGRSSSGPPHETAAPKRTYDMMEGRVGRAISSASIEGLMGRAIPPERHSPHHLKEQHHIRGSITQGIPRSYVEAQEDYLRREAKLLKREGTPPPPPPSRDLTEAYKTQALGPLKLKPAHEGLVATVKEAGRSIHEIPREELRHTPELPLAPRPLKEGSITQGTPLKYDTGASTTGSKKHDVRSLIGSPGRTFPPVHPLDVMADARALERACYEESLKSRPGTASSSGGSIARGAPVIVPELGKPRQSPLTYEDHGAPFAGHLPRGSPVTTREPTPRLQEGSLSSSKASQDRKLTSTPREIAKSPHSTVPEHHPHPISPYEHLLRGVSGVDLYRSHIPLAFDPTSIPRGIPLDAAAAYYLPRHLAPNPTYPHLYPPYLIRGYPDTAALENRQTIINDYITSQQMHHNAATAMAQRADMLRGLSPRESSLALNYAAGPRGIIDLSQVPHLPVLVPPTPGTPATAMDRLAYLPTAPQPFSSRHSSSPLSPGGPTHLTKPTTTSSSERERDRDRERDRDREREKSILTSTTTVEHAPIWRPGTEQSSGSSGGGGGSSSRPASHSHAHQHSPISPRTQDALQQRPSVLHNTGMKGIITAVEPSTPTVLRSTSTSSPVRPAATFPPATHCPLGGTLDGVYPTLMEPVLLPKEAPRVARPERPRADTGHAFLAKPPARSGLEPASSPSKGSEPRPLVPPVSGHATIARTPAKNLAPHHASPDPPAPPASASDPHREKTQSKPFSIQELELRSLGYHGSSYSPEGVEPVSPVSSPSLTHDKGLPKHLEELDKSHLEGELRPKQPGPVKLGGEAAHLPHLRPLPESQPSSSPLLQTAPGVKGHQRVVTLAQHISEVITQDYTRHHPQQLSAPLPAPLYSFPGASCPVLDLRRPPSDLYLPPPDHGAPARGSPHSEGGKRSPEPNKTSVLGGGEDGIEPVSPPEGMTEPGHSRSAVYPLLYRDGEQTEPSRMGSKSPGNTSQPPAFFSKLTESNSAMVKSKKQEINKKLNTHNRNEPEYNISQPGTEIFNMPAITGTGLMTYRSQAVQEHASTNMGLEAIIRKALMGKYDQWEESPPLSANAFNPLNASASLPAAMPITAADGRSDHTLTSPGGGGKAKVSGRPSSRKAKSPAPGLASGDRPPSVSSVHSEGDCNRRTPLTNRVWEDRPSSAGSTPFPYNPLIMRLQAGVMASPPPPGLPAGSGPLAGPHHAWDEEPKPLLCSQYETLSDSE
Chain of Histone deacetylase 2 (Q92769 whole entry, the tested form may be a part): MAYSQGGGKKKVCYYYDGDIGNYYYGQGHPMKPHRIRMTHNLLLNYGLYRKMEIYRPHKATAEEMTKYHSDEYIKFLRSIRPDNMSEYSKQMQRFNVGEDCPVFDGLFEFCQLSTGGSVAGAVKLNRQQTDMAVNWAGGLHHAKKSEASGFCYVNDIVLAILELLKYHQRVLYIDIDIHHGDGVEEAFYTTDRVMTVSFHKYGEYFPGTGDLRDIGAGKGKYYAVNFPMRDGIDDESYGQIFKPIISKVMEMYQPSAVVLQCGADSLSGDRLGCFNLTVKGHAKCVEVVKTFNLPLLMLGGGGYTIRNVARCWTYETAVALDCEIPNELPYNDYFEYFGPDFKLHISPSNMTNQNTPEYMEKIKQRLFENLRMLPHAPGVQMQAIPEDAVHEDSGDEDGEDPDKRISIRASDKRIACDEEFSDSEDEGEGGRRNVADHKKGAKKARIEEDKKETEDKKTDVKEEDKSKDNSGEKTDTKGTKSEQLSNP

O=C(/C=C/c1ccc(CNCCCN2c3ccccc3CCc3ccc(Cl)cc32)cc1)NO
IC50 (Histone deacetylase 2): 6620 nM
IC50 [1]: 2860 nM
clearance [2]: 21.3 mL/min/kg
IC50 (Histone deacetylase 8): 533 nM
IC50 (Histone deacetylase 7): Not Active
AUC(0-inf) [3]: 166 ng·h/mL
half-life [4]: 10.9 h
Cmax [5]: 8.9 ng/mL
Tmax [6]: 3.5 h
remaining at 0.5 h [7]: 37.4%
Activity (Mus musculus [8]): Active
Activity (Mus musculus [9]): Active
Activity (Mus musculus [10]): Active
